Assay results published in patent US20110262555A1, “METHODS AND COMPOSITIONS FOR REDUCING OR PREVENTING VASCULAR CALCIFICATION DURING PERITONEAL DIALYSIS THERAPY” (BAXTER INTERNATIONAL INC., priority 2010, published 2011).
Read-outs that look alike come from different tables or passages of the source.

Legend:
female rats = conditions: for diaphragmatic inflammation, severity grade / thickness of the diaphragm section involved by inflammation: 7 days intraperitoneal
Protocol: A maximum tolerated dose study was conducted according to the study design in Table 3. Solutions that were administered were made up of a dextrose concentrate or a modified dextrose concentrate and a buffer concentrate or a modified buffer concentrate mixed in a 3:1 ratio (dextrose:buffer). Each test or control article was administered intraperitoneally once daily for 7 consecutive days to each of five different female rats at volumes of 40 mL/kg via a butterfly needle as a bolus injection. Necropsy was performed one day after the last dose.
Tissue samples of the diaphragms from all rats were trimmed, processed, embedded in paraffin, and sectioned. Hematoxylin and eosin stained slides were prepared and examined by light microscopy. Microscopic observations were subjectively graded based on the relative severity of the change: Grade 1=minimal, Grade 2=mild, Grade 3=moderate, grade 4=marked.

[1] = tested on: APOe-KO/CRF mouse model of vascular calcification; conditions: for total aortic calcium content, effect on CRF-induced elevation: daily intraperitoneal, 8 weeks
Protocol: Homozygous apolipoprotein E knockout (apoE^−/−) mice were housed in polycarbonate cages in a pathogen-free, temperature-controlled (25° C.) room with a strict 12-hour light/dark cycle and with free access to lab chow and water. All procedures were in accordance with National Institutes of Health (“NIH”) guidelines for the care and use of experimental animals (NIH publication No. 85-23).
A 2-step procedure was used to create CRF in the mice at 10 weeks of age. Briefly, at age of 8 weeks, cortical electrocauterisation was applied to the right kidney through a 2-cm flank incision and contralateral total nephrectomy was performed through a similar incision 2 weeks later. Other mice underwent a 2-step procedure of sham operations with decapsulation of both kidneys with a 14-day distance between the two operations. Blood samples were taken 2 weeks after nephrectomy, and intra-peritoneal catheters were implanted at this time.
At the end of the study, the heart with the aortic root was then separated from ascending aorta. Cryosections of the aortic root tissue were used for quantification of vascular calcification and were used to assess atherosclerotic lesions at the site of the root. The thoracic part of the aorta was stored at −80° C. and used for quantification of calcium content.
Mice having high LDL will develop atherosclerosis. Those with the added partial nephrectomy will develop kidney impairment and were expected to produce marked vascular calcification of the heart and aorta, thus mimicking the disease seen in many dialysis patients. All groups were treated in a manner to mimic a peritoneal dialysis therapy, with a peritoneal dialysis solution either in the absence of PPi (sham and CRF placebo control groups) or containing two different doses of PPi (as outlined above).
Next, a method was employed whereby morphological image processing algorithms were used for the semi-automated measurement of calcification from sections of aorta stained using von Kossa's silver nitrate procedure (FIGS. 3A and 3B). These were acquired at low magnification power on color images. The process was separated into two sequential phases: 1) segmentation to separate the calcification structures and demarcate the region of the atherosclerotic lesion within the tissue, and 2) the quantification. Calcified structures were measured inside and outside the lesion using a granulometric curve that allows the calculation of statistical parameters of size.

SMILES | diaphragmatic inflammation, severity grade (female rats; 600 μM) | thickness of the diaphragm section involved by inflammation (female rats; 600 μM) | diaphragmatic inflammation, severity grade (female rats; 900 μM) | thickness of the diaphragm section involved by inflammation (female rats; 900 μM) | concentration producing chronic inflammation of the peritoneal surface of the diaphragm (local effect) (female rats; intraperitoneal, 7 consecutive days, 40 mL/kg/day, rats) [µM] | total aortic calcium content, effect on CRF-induced elevation ([1]; 30 μM PPi in dialysis solution) | total aortic calcium content, effect on CRF-induced elevation ([1]; 150 μM PPi in dialysis solution) | aortic root calcification inside the atherosclerotic lesion (von Kossa) ([1]; high dose PPi (150 μM)) | aortic root calcification outside the lesion (von Kossa) ([1]; high dose PPi (150 μM)) | aortic root calcification outside the lesion (von Kossa) ([1]; low dose PPi (30 μM)) | inhibition of aortic root calcification inside the atherosclerotic lesion (von Kossa) ([1]; low dose PPi (30 μM))
O=P([O-])([O-])OP(=O)(O)O.[Na+].[Na+] [disodium pyrophosphate] | mild (Grade 2) | 5-25% | mild in 1 rat and moderate in 4 of 5 rats | up to 50% | ≥ 600 | – | – | – | – | – | –
O=P(O)(O)OP(=O)(O)O [pyrophosphate] | – | – | – | – | – | moderate reduction, that was not statistically significant | completely blocked the effect of CRF on elevation of aortic calcium | completely prevented the elevation due to CRF | totally blocked | totally blocked | approximately 50%
